# Assay results: patent US9121801B2, “Methods and devices for cellular analysis” (BioMarker Strategies, LLC, priority 2007, dated 2015)
# Like-named read-outs stand apart in the source and are kept apart here.
# Key:
# FOS mRNA [1] = conditions: in culture; susceptible cell lines A431, CAL27, and HN11; cited from earlier work
# FOS expression = conditions: 14 days treatment, cited from earlier work
# FOS mRNA [2] = assay: FOS mRNA induction by quantitative RT-PCR in MCF-7 cells; assay type: cell-based, human; conditions: 100 ng/ml of EGF ligand, incubation 0-45 minutes
# Method: A functional measurement of cellular activation includes FOS mRNA induction determined by quantitative RT-PCR. FOS is an early response gene associated with the EGFR pathway. In an experiment, MCF-7 cells were grown in normal growth conditions in 6 well plates to 80% confluency. Cells were gently scraped and exposed to increasing shear forces (0-800 dyne/cm^2 through the Harvard Pipetter) in addition to increasing incubation times (0-45 minutes) in the presence or absence of 100 ng/ml of EGF ligand (Sigma) prior to RNA extraction. FOS mRNA induction peaks at 30-45 minutes and returns to basal levels in approximately 60 minutes. FOS induction is also stimulated as a result of incubation with EGF ligand. […] See FIGS. 17 and 18 for a graphical depiction of the results obtained.
# [3] = EGFR-sensitive A431, CAL27, and HN11 xenograft tumors, gefitinib (A431), erlotinib (CAL27, HN11)
# [4] = resistant strains, xenografts, gefitinib (HuCCT1), erlotinib (Hep2)
compound,measurement,setting,value
C#Cc1cccc(Nc2ncnc3cc(OCCOC)c(OCCOC)cc23)c1 [erlotinib],FOS mRNA levels,FOS mRNA [1],decrease FOS mRNA levels
same,increase in FOS expression in vivo,FOS expression; [3],abrogate the increase in FOS expression
same,increase in FOS expression in vivo,FOS expression; [4],not in resistant strains
COc1cc2ncnc(Nc3ccc(F)c(Cl)c3)c2cc1OCCCN1CCOCC1 [gefitinib],FOS mRNA levels,FOS mRNA [1],decrease FOS mRNA levels
same,increase in FOS expression in vivo,FOS expression; [3],abrogate the increase in FOS expression
same,increase in FOS expression in vivo,FOS expression; [4],not in resistant strains
"EGF ligand: growth factor, tumor-cell stimulatory ligand (Sigma) (NSDSECPLSHDGYCLHDGVCMYIEALDKYACNCVVGYIGERCQYRDLKWWELR; Epidermal growth factor; UniProt P01133 971-1023, looked up)",FOS induction,FOS mRNA [2],stimulated
